In patent EP2722048B1, “Iron bisglycinate chelate for use in treating anaemia” (Laboratori Baldacci S.p.A., priority 2012, dated 2014):
Where “and” joins values, the source holds several entries; their conditions need not be identical. Identical values can stand only once.

What was measured:
[1] = different values of pH of the gastrointestinal tract; cited from earlier work
[2] = test system: reticulocytes of the anaemic patient; assay: Test 3: cytofluorometric analysis of reticulocytes in blood samples; format: in vivo; details: for RET_IMM: immature reticulocytes: limits 0.00-0.50; for RETH: reticulocytes with high RNA content, highly immature: limits 0.0-10.0; for RETM: reticulocytes with average RNA content, immature on average: limits 0.0-40.0; for IRF: Immature Reticulocyte Function: limits 0.000-999.000; for MRV: Mean Reticulocyte Volume: limits 0-9999; for CRC: Corrected Reticulocyte Count: limits 0.75-2.30; for MFI: Mean Fluorescence Intensity: limits 5.0-30.0; for RhC/C: reticulocyte haemoglobin content: limits 28.9-33.9; for RETL: reticulocytes without RNA, poorly immature (or mature): limits 65.0-97.0
Experimental: In order to be able to quantify the increase in reticulocytes, cytofluorometry analyses were conducted on samples of blood taken from the patient both before the treatment with iron bisglycinate chelate (Table 3) and after 20 days of treatment (Table 4).
The cytofluorometric analysis (fluorescence flow cytometry CFM) is conducted here as an assessment of the fluorescence obtained with the step of a laser beam of a sample of cells to be examined; in any case, further conventional techniques can be used for the purpose of the present invention.

[3] = compared with mineral salts, for example iron sulphate; cited from earlier work
[4] = test system: patients before the hip arthroplasty operation; assay: Test 2: treatment for 10 days after taking 350 ml blood before hip arthroplasty, haematic parameters; format: in vivo; details: individual patients, 'Average' row = mean
Experimental: For about 10 days, before the hip arthroplasty operation, blood is usually taken from the patients (350 ml) so as to have available, if necessary, a quantity of blood that is sufficient for an autologous transfusion.
10 days after the blood is removed, the haematic parameters of the various patients are assessed, the intervention is performed and then the treatment with iron bisglycinate chelate continues for another 30 days after surgery.

[5] = test system: patients who had to undergo surgery and who suffered from slight sideropenic anaemia; details: t=0, before treatment, individual patients, 'Average' = mean
Experimental: An experimental study was conducted on patients who had to undergo surgery and who suffered from slight sideropenic anaemia.
The aim of the treatment with iron salts was to restore and/or increase the haemoglobin level before surgery in such a manner as to minimise morbidity and/or mortality after surgery.
5 patients were treated with 2 effervescent tablets (prepared as in example 1) per day of iron bisglycinate chelate for 30 days, equal to 28 mg of iron ion per day and 5 patients were treated with one tablet per day of iron sulphate equal to 105 mg of iron ion.
Heavy bleeding surgery took place 10 days after the start of treatment with the iron derivative, i.e. both with the iron bisglycinate chelate and with iron sulphate and the treatment with said iron derivative continued for the 20 days following surgery.

[6] = test system: patients before the hip arthroplasty operation; assay: Test 2: treatment for 10 days after taking 350 ml blood before hip arthroplasty, haematic parameters; format: in vivo; details: administration of iron sulphate; data in the applicant's possession
[7] = t=20, after 20 days of treatment

In the case of `NCC(=O)[O-].NCC(=O)[O-].[Fe+2]` [Iron bisglycinate chelate], the “stability of the bond (hydrolysis)” value [1] is given as “does not hydrolyse”, the “increase in the percentage of immature reticulocytes (RET_IMM)” value ([2]; after 20 days of treatment versus before the treatment) is given as 75% and the “RET_IMM: immature reticulocytes” value ([2]; t=0, before treatment) is given as 0.08%. The “RETH: reticulocytes with high RNA content, highly immature” value ([2]; t=0, before treatment) was 1.8%, the “RETM: reticulocytes with average RNA content, immature on average” value ([2]; t=0, before treatment) was 9.8% and the “IRF: Immature Reticulocyte Function” value ([2]; t=0, before treatment) was 0.156. The “MRV: Mean Reticulocyte Volume” value ([2]; t=0, before treatment) was 86 µm^3, the “CRC: Corrected Reticulocyte Count” value ([2]; t=0, before treatment) was 1.56% and the “MFI: Mean Fluorescence Intensity” value ([2]; t=0, before treatment) was 15.1%. The “RhC/C: reticulocyte haemoglobin content” value ([2]; t=0, before treatment) was 28.1 pg, the “RETL: reticulocytes without RNA, poorly immature (or mature)” value ([2]; t=0, before treatment) was 88.6% and the “RET_IMM: immature reticulocytes” value [2, 7] was 0.14%. For the same compound, the “RETH: reticulocytes with high RNA content, highly immature” value [2, 7] was 15.4%, the “RETM: reticulocytes with average RNA content, immature on average” value [2, 7] was 32.3% and the “IRF: Immature Reticulocyte Function” value [2, 7] was 0.534. For the same compound, the “MRV: Mean Reticulocyte Volume” value [2, 7] was 100 µm^3, the “CRC: Corrected Reticulocyte Count” value [2, 7] was 1.87% and the “MFI: Mean Fluorescence Intensity” value [2, 7] was 29.8%. For the same compound, the “RhC/C: reticulocyte haemoglobin content” value [2, 7] was 29.4 pg, the “RETL: reticulocytes without RNA, poorly immature (or mature)” value [2, 7] was 52.3% and the bioavailability [3] was “greater bioavailabilty than mineral salts”. The Haemoglobin ([4]; t=0, start of treatment after taking 350 ml blood) was 12.5 g/100ml and 13.2 g/100ml (2×) and 12.9 g/100ml (2×) and 13.3 g/100ml and 12.7 g/100ml, the “% Reticulocytes” value ([4]; t=0) was 1.1% (3×) and 0.6% and 2.1% and 1.4% and 0.8% and the Ferritin ([4]; t=0) was 97 ng/mL and 132 ng/mL and 315 ng/mL and 146 ng/mL and 43 ng/mL and 53 ng/mL and 67 ng/mL. For the same compound, the Sideraemia ([4]; t=0) was 76 µg/100ml and 67 µg/100ml and 58 µg/100ml and 112 µg/100ml and 75 µg/100ml and 87 µg/100ml, the “% Reticulocytes” value ([4]; t=10days, 2 tablets a day) was 1.5% and 0.9% and 16% and 23% and 1.2% and 25% and 1.7% and the Ferritin ([4]; t=10days, 2 tablets a day) was 103 ng/mL and 72 ng/mL and 237 ng/mL and 95 ng/mL and 25 ng/mL and 34 ng/mL and 67 ng/mL. For the same compound, the Haemoglobin ([4]; t=10days, 2 tablets a day) was 11.8 g/100ml (2×) and 12.7 g/100ml and 12.2 g/100ml and 12.8 g/100ml and 12.9 g/100ml and 12.1 g/100ml and the Sideraemia ([4]; t=10days, 2 tablets a day) was 58 µg/100ml and 120 µg/100ml and 80 µg/100ml and 62 µg/100ml and 65 µg/100ml and 84 µg/100ml and 69 µg/100ml.

With `O=S(=O)([O-])[O-].[Fe+2]` [Iron sulphate, reference compound] the Iron [5] was 110 µg/100ml and 85 µg/100ml, the Haemoglobin ([5]; bisglycinate 28 mg iron ion/day, sulphate 105 mg iron ion/day) was 12.5 g/100ml and 11.6 g/100ml and the “average reduction of the haemoglobin after taking 350 ml” value [6] was 1.5 g of Hb.
